pIC50: −log10 of the molar value. Square brackets hold non-standard residues; d marks the D form. Peptide text beside a SMILES is read from it.

This assay concerns the target calmodulin (Homo sapiens, UniProt P0DP23). Briefly: calcium-dependent phosphodiesterase assay (inhibition of calmodulin activity). It is filed as biochemical. The settings on record: for pIC50: concentration inhibiting 50% of calmodulin activity, assayed at 75 μM, 50 μM and 12.5 μM; for inhibition at 50 µM: inhibition of calmodulin activation of phosphodiesterase at 50 μM peptide, PDE without calmodulin = 100%, Calmo = 0%.

Description: In this assay, calmodulin can be assayed by its ability to stimulate phosphodiesterase activity as determined by a two-step assay procedure illustrated by reactions (1) and (2).
During the first step of the assay cyclic adenosine 3'5'-monophosphate (cAMP) is incubated with calcium-activated phosphodiesterase (Cal-PDE), which hydrolyses the 3' bond producing adenosine 5'-monophosphate (5'-AMP). During the second step 5'-AMP is quantitatively converted into adenosine and inorganic phosphate (Pi) through the action of a 5'-nucleotidase. […] The amount of Pi formed is directly related to the phosphodiesterase activity which depends on the level of activation by calmodulin.
To sample assay tubes were added the following components: assay buffer, 25 μl; CaCl2, 5 μl; 5'-nucleotidase, 7.5 μl (stock solution is 10 units/ml); calmodulin 5 units; calmodulin inhibitor peptides to obtain the desired final concentration of 50 μM. The volume was then made up to 200 μl with water. Control blanks were prepared replacing the peptides with water. The added components were thoroughly mixed and the tubes incubated at 30° C. for 10 min. […] The samples were centrifuged to remove the protein precipitate and the 50 μl of the supernatant was withdrawn for phosphate measurement. […] The absorbance of the solution were read at 660 nm using water as a blank, identified as control "Calmo," as discussed in more detail below.
These three peptides commonly used in every assay as control of reproducibility of the assay.
In addition to the calcium-dependent phosphodiesterase assay data, IC50 values were determined for many of the peptides. The assay carried out for the determination in the IC50 values differed from the above screening assay by the concentration of the peptides being tested.
(2) W13: N-(4-aminobutyl)-5-chloro-2-naphtalenesulfonamide; (3) TFP: trifluoperazine; (4) Calmidasolium: (1-[bis-(4-chlorophenyl)methyl]-3[-2-(2,4-dichlorophenyl)-2[(2,4-dichlorophenyl)methoxy]-ethyl]-1H-imidazolium chloride. The IC50 values were calculated using sigmoidal curve software (Graphpad, ISI, San Diego) using the % inhibition at different mixture concentrations (see attached protocol for determination of % inhibition).

As to `CC[C@@H](C)[C@@H](NC(=O)[C@@H](CCC(N)=O)NC(=O)[C@@H](CC(C)C)NC(C)=O)C(=O)N[C@@H](C(=O)N[C@H](CC(C)C)C(=O)N[C@H](CCCNC(=N)N)C(N)=O)[C@H](C)CC` [Ac-(D)Leu-(D)Gln-(D)Ile-(D)Ile-(D)Leu-(D)Arg-NH2] (Ac-[dL][dQ][dI][dI][dL][dR]-NH2), the pIC50 is less than 4.30 and the inhibition at 50 µM amounted to 15.8%.
In the case of `CC[C@@H](C)[C@@H](NC(=O)[C@@H](CCCNC(=N)N)NC(=O)[C@@H](CCC(N)=O)NC(=O)[C@@H](CC(C)C)NC(C)=O)C(=O)N[C@H](Cc1c[nH]cn1)C(=O)N[C@H](Cc1c[nH]c2ccccc12)C(N)=O` [Ac-(D)Leu-(D)Gln-(D)Arg-(D)Ile-(D)His-(D)Trp-NH2] (Ac-[dL][dQ][dR][dI][dH][dW]-NH2), the pIC50 is 4.40 and the inhibition at 50 µM came out at 34.2%.
Take `CC(=O)N[C@H](CC(C)C)C(=O)N[C@H](CCC(N)=O)C(=O)N[C@H](CCCNC(=N)N)C(=O)N[C@H](Cc1c[nH]cn1)C(=O)N[C@H](Cc1c[nH]cn1)C(=O)N[C@H](CCCNC(=N)N)C(N)=O` [Ac-(D)Leu-(D)Gln-(D)Arg-(D)His-(D)His-(D)Arg-NH2] (Ac-[dL][dQ][dR][dH][dH][dR]-NH2): the inhibition at 50 µM is 63.2%.
Regarding `CC[C@@H](C)[C@@H](NC(=O)[C@@H](Cc1c[nH]c2ccccc12)NC(=O)[C@@H](CC(C)C)NC(C)=O)C(=O)N[C@@H](C(=O)N[C@H](CC(C)C)C(=O)N[C@H](Cc1c[nH]c2ccccc12)C(N)=O)[C@H](C)CC` [Ac-(D)Leu-(D)Trp-(D)Ile-(D)Ile-(D)Leu-(D)Trp-NH2] (Ac-[dL][dW][dI][dI][dL][dW]-NH2), the pIC50 was less than 4.30 and the inhibition at 50 µM was found to be 23.7%.
The corresponding values for `CC[C@@H](C)[C@@H](NC(=O)[C@@H](CCCNC(=N)N)NC(=O)[C@@H](Cc1c[nH]c2ccccc12)NC(=O)[C@@H](CC(C)C)NC(C)=O)C(=O)N[C@H](CC(C)C)C(=O)N[C@H](Cc1c[nH]c2ccccc12)C(N)=O` [Ac-(D)Leu-(D)Trp-(D)Arg-(D)Ile-(D)Leu-(D)Trp-NH2] (Ac-[dL][dW][dR][dI][dL][dW]-NH2) are 4.82 and 101%.
As to `CC[C@@H](C)[C@@H](NC(=O)[C@@H](CCC(N)=O)NC(=O)[C@@H](CC(C)C)NC(C)=O)C(=O)N[C@H](Cc1c[nH]cn1)C(=O)N[C@H](CC(C)C)C(=O)N[C@H](CCCNC(=N)N)C(N)=O` [Ac-(D)Leu-(D)Gln-(D)Ile-(D)His-(D)Leu-(D)Arg-NH2] (Ac-[dL][dQ][dI][dH][dL][dR]-NH2), the inhibition at 50 µM was determined as 28.9%.
As for `CC[C@@H](C)[C@@H](NC(=O)[C@@H](CCCNC(=N)N)NC(=O)[C@@H](CCC(N)=O)NC(=O)[C@@H](CC(C)C)NC(C)=O)C(=O)N[C@H](Cc1c[nH]cn1)C(=O)N[C@H](CCCNC(=N)N)C(N)=O` [Ac-(D)Leu-(D)Gln-(D)Arg-(D)Ile-(D)His-(D)Arg-NH2] (Ac-[dL][dQ][dR][dI][dH][dR]-NH2), the pIC50 was less than 4.30 and the inhibition at 50 µM was 21.1%.
Turning to `CC(=O)N[C@H](CC(C)C)C(=O)N[C@H](CCC(N)=O)C(=O)N[C@H](CCCNC(=N)N)C(=O)N[C@H](Cc1c[nH]cn1)C(=O)N[C@H](CC(C)C)C(=O)N[C@H](CCCNC(=N)N)C(N)=O` [Ac-(D)Leu-(D)Gln-(D)Arg-(D)His-(D)Leu-(D)Arg-NH2] (Ac-[dL][dQ][dR][dH][dL][dR]-NH2), the inhibition at 50 µM was 64.5%.
Take `CC[C@@H](C)[C@@H](NC(=O)[C@@H](CCCNC(=N)N)NC(=O)[C@@H](Cc1c[nH]c2ccccc12)NC(=O)[C@@H](CC(C)C)NC(C)=O)C(=O)N[C@H](Cc1c[nH]cn1)C(=O)N[C@H](CCCNC(=N)N)C(N)=O` [Ac-(D)Leu-(D)Trp-(D)Arg-(D)Ile-(D)His-(D)Arg-NH2] (Ac-[dL][dW][dR][dI][dH][dR]-NH2): the pIC50 is 4.49 and the inhibition at 50 µM worked out at 68.4%.
Take `CC(=O)N[C@H](CC(C)C)C(=O)N[C@H](CCC(N)=O)C(=O)N[C@H](CCCNC(=N)N)C(=O)N[C@H](Cc1c[nH]cn1)C(=O)N[C@H](Cc1c[nH]cn1)C(=O)N[C@H](Cc1c[nH]c2ccccc12)C(N)=O` [Ac-(D)Leu-(D)Gln-(D)Arg-(D)His-(D)His-(D)Trp-NH2] (Ac-[dL][dQ][dR][dH][dH][dW]-NH2): the inhibition at 50 µM was 79%.
`CC[C@@H](C)[C@@H](NC(=O)[C@@H](Cc1c[nH]c2ccccc12)NC(=O)[C@@H](CC(C)C)NC(C)=O)C(=O)N[C@@H](C(=O)N[C@H](CC(C)C)C(=O)N[C@H](CCCNC(=N)N)C(N)=O)[C@H](C)CC` [Ac-(D)Leu-(D)Trp-(D)Ile-(D)Ile-(D)Leu-(D)Arg-NH2] (Ac-[dL][dW][dI][dI][dL][dR]-NH2): the pIC50 is 5.00 and the inhibition at 50 µM is 85.5%.
The corresponding values for `CC[C@@H](C)[C@@H](NC(=O)[C@@H](Cc1c[nH]c2ccccc12)NC(=O)[C@@H](CC(C)C)NC(C)=O)C(=O)N[C@@H](C(=O)N[C@H](Cc1c[nH]cn1)C(=O)N[C@H](Cc1c[nH]c2ccccc12)C(N)=O)[C@H](C)CC` [Ac-(D)Leu-(D)Trp-(D)Ile-(D)Ile-(D)His-(D)Trp-NH2] (Ac-[dL][dW][dI][dI][dH][dW]-NH2) are not below 5.05 and 92.1%.
Regarding `CC[C@@H](C)[C@@H](NC(=O)[C@@H](CCCNC(=N)N)NC(=O)[C@@H](Cc1c[nH]c2ccccc12)NC(=O)[C@@H](CC(C)C)NC(C)=O)C(=O)N[C@H](Cc1c[nH]cn1)C(=O)N[C@H](Cc1c[nH]c2ccccc12)C(N)=O` [Ac-(D)Leu-(D)Trp-(D)Arg-(D)Ile-(D)His-(D)Trp-NH2] (Ac-[dL][dW][dR][dI][dH][dW]-NH2), the inhibition at 50 µM is 52.6%.
In the case of `CC(=O)N[C@H](CC(C)C)C(=O)N[C@H](Cc1c[nH]c2ccccc12)C(=O)N[C@H](CCCNC(=N)N)C(=O)N[C@H](Cc1c[nH]cn1)C(=O)N[C@H](Cc1c[nH]cn1)C(=O)N[C@H](Cc1c[nH]c2ccccc12)C(N)=O` [Ac-(D)Leu-(D)Trp-(D)Arg-(D)His-(D)His-(D)Trp-NH2] (Ac-[dL][dW][dR][dH][dH][dW]-NH2), the inhibition at 50 µM turned out to be 36.8%.
Turning to `CC[C@@H](C)[C@@H](NC(=O)[C@@H](CCC(N)=O)NC(=O)[C@@H](CC(C)C)NC(C)=O)C(=O)N[C@@H](C(=O)N[C@H](CC(C)C)C(=O)N[C@H](Cc1c[nH]c2ccccc12)C(N)=O)[C@H](C)CC` [Ac-(D)Leu-(D)Gln-(D)Ile-(D)Ile-(D)Leu-(D)Trp-NH2] (Ac-[dL][dQ][dI][dI][dL][dW]-NH2), the pIC50 is less than 4.30 and the inhibition at 50 µM was found to be 47.4%.
For the compound `CC[C@@H](C)[C@@H](NC(=O)[C@@H](Cc1c[nH]c2ccccc12)NC(=O)[C@@H](CC(C)C)NC(C)=O)C(=O)N[C@H](Cc1c[nH]cn1)C(=O)N[C@H](Cc1c[nH]cn1)C(=O)N[C@H](Cc1c[nH]c2ccccc12)C(N)=O` [Ac-(D)Leu-(D)Trp-(D)Ile-(D)His-(D)His-(D)Trp-NH2] (Ac-[dL][dW][dI][dH][dH][dW]-NH2), the pIC50 is 4.62 and the inhibition at 50 µM worked out at 103%.
`CC[C@@H](C)[C@@H](NC(=O)[C@@H](CCCNC(=N)N)NC(=O)[C@@H](CCC(N)=O)NC(=O)[C@@H](CC(C)C)NC(C)=O)C(=O)N[C@H](CC(C)C)C(=O)N[C@H](CCCNC(=N)N)C(N)=O` [Ac-(D)Leu-(D)Gln-(D)Arg-(D)Ile-(D)Leu-(D)Arg-NH2] (Ac-[dL][dQ][dR][dI][dL][dR]-NH2): the pIC50 was less than 4.30 and the inhibition at 50 µM was -13.2%.
For the compound `CC[C@@H](C)[C@@H](NC(=O)[C@@H](CCC(N)=O)NC(=O)[C@@H](CC(C)C)NC(C)=O)C(=O)N[C@H](Cc1c[nH]cn1)C(=O)N[C@H](CC(C)C)C(=O)N[C@H](Cc1c[nH]c2ccccc12)C(N)=O` [Ac-(D)Leu-(D)Gln-(D)Ile-(D)His-(D)Leu-(D)Trp-NH2] (Ac-[dL][dQ][dI][dH][dL][dW]-NH2), the inhibition at 50 µM was 46%.
Take `CC[C@@H](C)[C@@H](NC(=O)[C@@H](Cc1c[nH]c2ccccc12)NC(=O)[C@@H](CC(C)C)NC(C)=O)C(=O)N[C@@H](C(=O)N[C@H](Cc1c[nH]cn1)C(=O)N[C@H](CCCNC(=N)N)C(N)=O)[C@H](C)CC` [Ac-(D)Leu-(D)Trp-(D)Ile-(D)Ile-(D)His-(D)Arg-NH2] (Ac-[dL][dW][dI][dI][dH][dR]-NH2): the pIC50 is 4.37 and the inhibition at 50 µM was determined as 89.5%.
Taken in the same sequence, the figures for `CC[C@@H](C)[C@@H](NC(=O)[C@@H](Cc1c[nH]c2ccccc12)NC(=O)[C@@H](CC(C)C)NC(C)=O)C(=O)N[C@H](Cc1c[nH]cn1)C(=O)N[C@H](CC(C)C)C(=O)N[C@H](CCCNC(=N)N)C(N)=O` [Ac-(D)Leu-(D)Trp-(D)Ile-(D)His-(D)Leu-(D)-Arg-NH2] (Ac-[dL][dW][dI][dH][dL][dR]-NH2) were 4.92 and 103%.
On to `CC(=O)N[C@H](CC(C)C)C(=O)N[C@H](Cc1c[nH]c2ccccc12)C(=O)N[C@H](CCCNC(=N)N)C(=O)N[C@H](Cc1c[nH]cn1)C(=O)N[C@H](Cc1c[nH]cn1)C(=O)N[C@H](CCCNC(=N)N)C(N)=O` [Ac-(D)Leu-(D)Trp-(D)Arg-(D)His-(D)His-(D)Arg-NH2] (Ac-[dL][dW][dR][dH][dH][dR]-NH2), for which the inhibition at 50 µM came out at 57.9%.
On to `CC(=O)N[C@H](CC(C)C)C(=O)N[C@H](CCC(N)=O)C(=O)N[C@H](CCCNC(=N)N)C(=O)N[C@H](Cc1c[nH]cn1)C(=O)N[C@H](CC(C)C)C(=O)N[C@H](Cc1c[nH]c2ccccc12)C(N)=O` [Ac-(D)Leu-(D)Gln-(D)Arg-(D)His-(D)Leu-(D)Trp-NH2] (Ac-[dL][dQ][dR][dH][dL][dW]-NH2), for which the inhibition at 50 µM stood at 44.7%.
Regarding `CC[C@@H](C)[C@@H](NC(=O)[C@@H](CCCNC(=N)N)NC(=O)[C@@H](CCC(N)=O)NC(=O)[C@@H](CC(C)C)NC(C)=O)C(=O)N[C@H](CC(C)C)C(=O)N[C@H](Cc1c[nH]c2ccccc12)C(N)=O` [Ac-(D)Leu-(D)Gln-(D)Arg-(D)Ile-(D)Leu-(D)Trp-NH2] (Ac-[dL][dQ][dR][dI][dL][dW]-NH2), the pIC50 was less than 4.30 and the inhibition at 50 µM amounted to 44.5%.
With `CC[C@@H](C)[C@@H](NC(=O)[C@@H](CCCNC(=N)N)NC(=O)[C@@H](Cc1c[nH]c2ccccc12)NC(=O)[C@@H](CC(C)C)NC(C)=O)C(=O)N[C@H](CC(C)C)C(=O)N[C@H](CCCNC(=N)N)C(N)=O` [Ac-(D)Leu-(D)Trp-(D)Arg-(D)Ile-(D)Leu-(D)Arg-NH2] (Ac-[dL][dW][dR][dI][dL][dR]-NH2), the pIC50 is 4.82 and the inhibition at 50 µM amounted to 107%.

A word on the pIC50: it is the IC50 on a negative log10 scale, so that one unit is a factor of ten. One may read the inhibition as the relative decrease from the control value, in per cent.

The record behind these values is patent US5624902A, “Peptide inhibitors of calmodulin” (Torrey Pines Institute for Molecular Studies, priority 1995, dated 1997).
